The target of assay [1] is T1, Muscarinic acetylcholine receptor M2 (Homo sapiens, UniProt P08172).
T1 sequence (P08172 whole entry): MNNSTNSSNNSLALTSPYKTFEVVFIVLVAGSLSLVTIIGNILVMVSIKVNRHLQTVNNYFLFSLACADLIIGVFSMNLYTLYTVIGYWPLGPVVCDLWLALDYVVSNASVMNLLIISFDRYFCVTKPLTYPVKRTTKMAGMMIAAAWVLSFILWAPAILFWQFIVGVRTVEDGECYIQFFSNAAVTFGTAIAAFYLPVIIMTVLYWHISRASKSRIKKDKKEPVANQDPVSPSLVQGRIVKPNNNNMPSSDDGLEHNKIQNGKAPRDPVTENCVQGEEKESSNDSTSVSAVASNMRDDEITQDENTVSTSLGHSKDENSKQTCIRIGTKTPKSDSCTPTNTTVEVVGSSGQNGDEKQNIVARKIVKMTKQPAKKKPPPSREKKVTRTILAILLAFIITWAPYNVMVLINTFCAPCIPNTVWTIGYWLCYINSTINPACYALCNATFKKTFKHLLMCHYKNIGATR
The assay is classed as functional, cell-based.

The target in the next assay is T2, B2 bradykinin receptor (Homo sapiens, UniProt P30411).
T2 sequence (P30411 whole entry): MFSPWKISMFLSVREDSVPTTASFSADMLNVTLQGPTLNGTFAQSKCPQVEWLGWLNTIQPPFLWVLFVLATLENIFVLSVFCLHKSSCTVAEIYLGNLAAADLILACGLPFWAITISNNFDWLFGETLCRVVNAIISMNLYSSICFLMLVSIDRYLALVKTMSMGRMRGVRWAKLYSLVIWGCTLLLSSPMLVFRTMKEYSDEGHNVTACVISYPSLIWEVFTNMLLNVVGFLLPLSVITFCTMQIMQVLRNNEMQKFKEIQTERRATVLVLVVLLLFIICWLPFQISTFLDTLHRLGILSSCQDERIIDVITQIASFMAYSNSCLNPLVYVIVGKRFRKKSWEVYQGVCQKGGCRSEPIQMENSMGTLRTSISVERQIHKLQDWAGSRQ

In a further assay the target is T3, Progesterone receptor (Homo sapiens, UniProt P06401).
T3 sequence (P06401 whole entry): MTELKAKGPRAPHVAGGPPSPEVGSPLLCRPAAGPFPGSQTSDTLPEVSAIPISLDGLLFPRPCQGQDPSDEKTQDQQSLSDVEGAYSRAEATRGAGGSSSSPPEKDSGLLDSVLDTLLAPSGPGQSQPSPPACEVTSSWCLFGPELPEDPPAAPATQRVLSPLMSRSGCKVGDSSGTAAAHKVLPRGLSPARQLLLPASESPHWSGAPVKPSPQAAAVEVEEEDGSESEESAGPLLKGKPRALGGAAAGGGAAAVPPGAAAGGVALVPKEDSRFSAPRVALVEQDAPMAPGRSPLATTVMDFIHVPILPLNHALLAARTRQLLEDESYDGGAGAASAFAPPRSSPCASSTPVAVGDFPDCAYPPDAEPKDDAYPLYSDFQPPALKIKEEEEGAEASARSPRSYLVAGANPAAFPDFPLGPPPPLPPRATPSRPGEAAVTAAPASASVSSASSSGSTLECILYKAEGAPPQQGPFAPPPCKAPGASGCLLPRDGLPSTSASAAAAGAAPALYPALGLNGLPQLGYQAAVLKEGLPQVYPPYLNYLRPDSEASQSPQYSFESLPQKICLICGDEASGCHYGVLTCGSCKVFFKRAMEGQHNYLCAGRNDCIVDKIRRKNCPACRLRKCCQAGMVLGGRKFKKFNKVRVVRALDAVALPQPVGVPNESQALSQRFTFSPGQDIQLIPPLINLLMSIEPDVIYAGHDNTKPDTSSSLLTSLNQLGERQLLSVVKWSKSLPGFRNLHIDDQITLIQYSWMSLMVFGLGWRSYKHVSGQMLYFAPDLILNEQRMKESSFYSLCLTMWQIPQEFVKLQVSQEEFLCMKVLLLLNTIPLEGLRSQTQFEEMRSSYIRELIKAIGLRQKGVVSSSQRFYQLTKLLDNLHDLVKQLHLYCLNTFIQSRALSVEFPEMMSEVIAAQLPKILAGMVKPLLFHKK
Type of assay: functional.

The next assay concerns the target Vasopressin V2 receptor (Homo sapiens, UniProt P30518).
The target in assay [2] is Neuronal acetylcholine receptor subunit alpha-4 (Homo sapiens, UniProt P43681).
Sequence of Neuronal acetylcholine receptor subunit alpha-4 (P43681 whole entry): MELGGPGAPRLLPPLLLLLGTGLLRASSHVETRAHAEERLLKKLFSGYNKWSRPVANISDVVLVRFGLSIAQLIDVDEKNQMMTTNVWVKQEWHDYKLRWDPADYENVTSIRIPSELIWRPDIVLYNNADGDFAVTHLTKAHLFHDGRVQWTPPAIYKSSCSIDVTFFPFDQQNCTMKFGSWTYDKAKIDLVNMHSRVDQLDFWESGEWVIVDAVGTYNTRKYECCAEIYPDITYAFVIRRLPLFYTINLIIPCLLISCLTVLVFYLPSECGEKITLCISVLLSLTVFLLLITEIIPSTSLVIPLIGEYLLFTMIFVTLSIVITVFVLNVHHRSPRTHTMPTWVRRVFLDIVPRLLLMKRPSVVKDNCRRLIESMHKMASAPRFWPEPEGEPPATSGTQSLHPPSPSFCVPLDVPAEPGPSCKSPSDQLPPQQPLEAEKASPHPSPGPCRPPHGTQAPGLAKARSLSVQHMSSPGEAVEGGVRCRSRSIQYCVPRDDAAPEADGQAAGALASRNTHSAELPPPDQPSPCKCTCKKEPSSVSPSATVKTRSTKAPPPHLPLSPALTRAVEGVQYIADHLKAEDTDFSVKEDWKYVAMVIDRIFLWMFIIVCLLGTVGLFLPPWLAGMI
Assay [3] has as its target Delta-type opioid receptor (Homo sapiens, UniProt P41143).
The target in another assay is Vasopressin V1a receptor (Homo sapiens, UniProt P37288).
Sequence of Vasopressin V1a receptor (P37288 whole entry): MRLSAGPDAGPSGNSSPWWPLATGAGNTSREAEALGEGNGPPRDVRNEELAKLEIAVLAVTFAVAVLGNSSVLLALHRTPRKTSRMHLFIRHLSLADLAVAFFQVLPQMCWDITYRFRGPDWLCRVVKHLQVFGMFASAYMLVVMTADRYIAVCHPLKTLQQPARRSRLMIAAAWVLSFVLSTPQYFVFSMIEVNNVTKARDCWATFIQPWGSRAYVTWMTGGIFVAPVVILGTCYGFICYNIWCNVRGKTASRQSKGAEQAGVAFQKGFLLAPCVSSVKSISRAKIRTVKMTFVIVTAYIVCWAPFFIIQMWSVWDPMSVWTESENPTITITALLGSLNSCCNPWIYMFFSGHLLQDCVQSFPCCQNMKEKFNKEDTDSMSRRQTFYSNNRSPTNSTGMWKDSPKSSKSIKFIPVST
The next assay has as its target T4, Adenosine receptor A3 (Homo sapiens, UniProt P0DMS8).
T4 sequence (P0DMS8 whole entry): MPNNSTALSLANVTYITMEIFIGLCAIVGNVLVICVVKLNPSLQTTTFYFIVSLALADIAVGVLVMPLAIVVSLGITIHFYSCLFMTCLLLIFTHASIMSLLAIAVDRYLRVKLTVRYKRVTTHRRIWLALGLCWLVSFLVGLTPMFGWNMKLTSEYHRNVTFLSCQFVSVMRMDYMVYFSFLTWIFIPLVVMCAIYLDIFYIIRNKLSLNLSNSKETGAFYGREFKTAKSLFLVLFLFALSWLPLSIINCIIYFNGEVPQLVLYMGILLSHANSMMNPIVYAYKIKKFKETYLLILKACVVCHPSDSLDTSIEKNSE

Assay [4] addresses T5, Prostaglandin G/H synthase 1 (Rattus norvegicus, UniProt Q63921).
T5 sequence (Q63921 whole entry): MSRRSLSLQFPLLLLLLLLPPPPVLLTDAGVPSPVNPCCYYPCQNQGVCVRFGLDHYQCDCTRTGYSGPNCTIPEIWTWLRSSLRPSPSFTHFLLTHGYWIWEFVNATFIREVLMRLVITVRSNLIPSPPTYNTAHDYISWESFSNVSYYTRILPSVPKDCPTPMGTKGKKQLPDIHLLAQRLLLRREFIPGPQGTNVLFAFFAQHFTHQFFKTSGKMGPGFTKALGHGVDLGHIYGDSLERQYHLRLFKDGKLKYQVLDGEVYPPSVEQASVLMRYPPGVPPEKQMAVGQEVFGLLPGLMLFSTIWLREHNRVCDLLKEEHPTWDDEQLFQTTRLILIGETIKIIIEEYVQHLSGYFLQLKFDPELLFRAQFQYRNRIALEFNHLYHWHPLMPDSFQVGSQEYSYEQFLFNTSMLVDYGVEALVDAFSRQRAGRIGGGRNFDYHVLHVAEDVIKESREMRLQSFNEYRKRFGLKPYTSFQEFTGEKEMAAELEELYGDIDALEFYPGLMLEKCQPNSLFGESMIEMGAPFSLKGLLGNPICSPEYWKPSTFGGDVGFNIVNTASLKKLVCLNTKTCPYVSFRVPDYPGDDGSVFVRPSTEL
Type of assay: functional.
Further: assay procedure not described here.

Sequence of Delta-type opioid receptor (P41143 whole entry): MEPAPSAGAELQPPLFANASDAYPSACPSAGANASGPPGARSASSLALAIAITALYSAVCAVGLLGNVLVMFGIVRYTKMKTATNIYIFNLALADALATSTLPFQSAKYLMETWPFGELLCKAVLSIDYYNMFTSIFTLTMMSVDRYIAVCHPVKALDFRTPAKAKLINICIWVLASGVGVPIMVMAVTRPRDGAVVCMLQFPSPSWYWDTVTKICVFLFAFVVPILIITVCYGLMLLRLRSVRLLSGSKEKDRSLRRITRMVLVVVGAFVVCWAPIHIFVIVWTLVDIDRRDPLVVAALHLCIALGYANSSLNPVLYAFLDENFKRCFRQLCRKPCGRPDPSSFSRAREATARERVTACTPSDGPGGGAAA
Sequence of Vasopressin V2 receptor (P30518 whole entry): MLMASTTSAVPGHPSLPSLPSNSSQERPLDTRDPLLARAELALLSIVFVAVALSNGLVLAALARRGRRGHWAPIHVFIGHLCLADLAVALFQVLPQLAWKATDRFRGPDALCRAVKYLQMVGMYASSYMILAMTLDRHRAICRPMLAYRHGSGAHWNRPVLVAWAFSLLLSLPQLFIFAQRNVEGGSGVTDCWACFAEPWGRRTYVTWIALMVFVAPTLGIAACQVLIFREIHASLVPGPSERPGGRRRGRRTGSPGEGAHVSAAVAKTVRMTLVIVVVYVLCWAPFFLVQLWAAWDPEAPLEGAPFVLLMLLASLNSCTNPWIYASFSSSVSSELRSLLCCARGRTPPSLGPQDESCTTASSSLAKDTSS

As usually defined, the AC50 is the concentration giving half of the maximal activity seen. The low end stands for greater potency, the high end for weaker potency. As for `C#C[C@]1(O)CC[C@H]2[C@@H]3CCc4cc(OC5CCCC5)ccc4[C@H]3CC[C@@]21C` [QUINESTROL], the AC50 was above 10 µM in assay [1]; above 10 µM at B2 bradykinin receptor; 0.221 µM at Progesterone receptor; above 10 µM on Vasopressin V2 receptor; above 10 µM in assay [2]; above 30 µM in [3]. The AC50 (at Vasopressin V1a receptor; at Adenosine receptor A3; in assay [4]) was above 10 µM throughout.
Regarding `COc1ccccc1N1CCN(CCCNc2cc(=O)n(C)c(=O)n2C)CC1`, the concentration at half-maximal activity (AC50) (in assay [1]; at B2 bradykinin receptor; at Progesterone receptor; on Vasopressin V2 receptor; in assay [2]; in assay [3]) was above 30 µM throughout. Also, the AC50 (on Vasopressin V1a receptor; at Adenosine receptor A3; in assay [4]) was above 30 µM in each case.
Turning to `OC(CNCC(O)C1CCc2cc(F)ccc2O1)C1CCc2cc(F)ccc2O1` (stereo unspecified) [NEBIVOLOL], the AC50 was above 30 µM in assay [1]; above 30 µM on B2 bradykinin receptor; above 30 µM at Progesterone receptor; 29 µM on Vasopressin V2 receptor; above 30 µM in assay [2]; above 30 µM in assay [3]. Besides, the AC50 was above 30 µM at Vasopressin V1a receptor, 19 µM on Adenosine receptor A3 and above 30 µM in [4].
As for `Nc1nc(/C(=C/CC(=O)O)C(=O)N[C@@H]2C(=O)N3C(C(=O)O)=CCS[C@H]23)cs1` [CEFTIBUTEN], the AC50 (in assay [1]; at B2 bradykinin receptor; on Progesterone receptor; on Vasopressin V2 receptor; in assay [2]; in assay [3]) was above 30 µM throughout. In addition, the AC50 (at Vasopressin V1a receptor; on Adenosine receptor A3; in assay [4]) was above 30 µM in each case.
Regarding `COC(=O)[C@H]1[C@H]2C[C@@H]3c4[nH]c5cc(OC)ccc5c4CCN3C[C@H]2C[C@@H](OC(=O)/C=C/c2cc(OC)c(OC)c(OC)c2)[C@@H]1OC` [RESCINNAMINE], the AC50 in assay [1] was above 10 µM; at B2 bradykinin receptor it was above 10 µM; at Progesterone receptor it was above 10 µM; on Vasopressin V2 receptor, above 10 µM; in [2], above 10 µM; in assay [3], above 30 µM. In addition, the AC50 on Vasopressin V1a receptor is above 10 µM; on Adenosine receptor A3 it was above 30 µM; in [4], 11.6 µM.
For the molecule `CC(=O)OCC(=O)[C@@]12N=C(C)O[C@@H]1C[C@H]1[C@@H]3CCC4=CC(=O)C=C[C@]4(C)[C@H]3[C@@H](O)C[C@@]12C` [DEFLAZACORT], the concentration at half-maximal activity (AC50) in assay [1] is above 30 µM; at B2 bradykinin receptor, above 30 µM; at Progesterone receptor, 3.7 µM; on Vasopressin V2 receptor, above 30 µM; in assay [2] it was above 30 µM; in assay [3] it was above 30 µM. For the same molecule, the AC50 (at Vasopressin V1a receptor; on Adenosine receptor A3; in assay [4]) was above 30 µM each time.
As to `C=CCC1(CC(C)C)C(=O)NC(=O)NC1=O` [BUTALBITAL], the AC50 in assay [1] is above 10 µM; at B2 bradykinin receptor it was above 10 µM; at Progesterone receptor it was above 10 µM; on Vasopressin V2 receptor, above 10 µM; in [2], above 10 µM; in [3] it was above 30 µM. The AC50 (at Vasopressin V1a receptor; at Adenosine receptor A3; in assay [4]) was above 10 µM in each case.
Take `Cc1ccc(-n2nccn2)c(C(=O)N2CCN(c3nc4cc(Cl)ccc4o3)CC[C@H]2C)c1` [SUVOREXANT]: the AC50 (in assay [1]; at B2 bradykinin receptor; on Progesterone receptor; on Vasopressin V2 receptor; in assay [2]; in [3]) was above 30 µM throughout. The AC50 was above 30 µM at Vasopressin V1a receptor, above 10 µM on Adenosine receptor A3 and above 30 µM in assay [4].
For `COc1cc2c(N)nc(N3CCN(C(=O)OCC(C)(C)O)CC3)nc2c(OC)c1OC` [TRIMAZOSIN], the AC50 (in assay [1]; at B2 bradykinin receptor; at Progesterone receptor; on Vasopressin V2 receptor; in assay [2]; in assay [3]) was above 30 µM each time. The AC50 (at Vasopressin V1a receptor; on Adenosine receptor A3; in [4]) was above 30 µM in each case.

These data come from ChEMBL document CHEMBL5291721, “A preclinical secondary pharmacology resource illuminates target-adverse drug reaction associations of marketed drugs” (Nat Commun, 2023).
